In patent publication US11300640B2, “Protein reporters for ultrasensitive detection methods” (The Trustees of the University of Pennsylvania, priority 2017, dated 2022):
“Also recorded” adds a separate entry of the source.

Legend:
MBP = MBP (Escherichia coli, UniProt P0AEX9); details: binding to MBP; cited from earlier work
[1] = 129Xe hyper-CEST NMR of GFP-RBP mutants
Experimental: To evaluate whether GFP-RBP(L19A) reports any Xe hyper-CEST contrast, a hyper-CEST z-spectrum was acquired from 10 μM GFP-RBP(L19A) in the presence and absence of ribose. Multiple selective Dsnob-shaped saturation pulses were scanned over the chemical shift range of 93-358 ppm in 5 ppm steps, and the ^129Xe(aq) signal was measured as a function of saturation pulse offset (FIG. 55).
To assess the detection sensitivity of GFP-RBP(L19A), time-dependent saturation transfer experiments were performed by measuring Xe(aq) polarization as a function of saturation time. Shaped saturation pulses were applied at the chemical shift of Xe@RBP(L19A)closed, and the residual aqueous ^129Xe signal after saturation transfer was measured as an on-resonance CEST response. Saturation frequencies of Dsnob-shaped pulses were positioned at +42.5 and −42.5 ppm, referenced to the Xe(aq) peak, for on- and off-resonance, respectively. The pulse length was 1.727 ms, and the field strength was 170 μT. The normalized difference between on- and off-resonance signals was represented by the saturation contrast.

[2] = parameters: Ka of Xe binding / Ka for Xe binding to MBP+βCD: unit not given here; details: cited from earlier work; for xenon association constant: room temperature
[3] = 129Xe hyper-CEST NMR of purified MBP and MBP mutants; details: for T1off / T1on / saturation contrast: 100 nM WT MBP
Text: Briefly, HP ^129Xe was generated using the spin-exchange optical pumping (SEOP) method with a home-built ^129Xe polarizer based on the IGI.Xe.2000 commercial model by GE. A Shark 65 W tunable ultra-narrow band diode laser (OptiGrate) set to 795 nm was used for optical pumping of Rb vapor. A gas mixture of 88% helium, 10% nitrogen, and 2% natural abundance xenon (Linde Group, N.J.) was used as the hyperpolarizer input. ^129Xe hyperpolarization level was roughly 10-15%. For each data point in the hyper-CEST z-spectra, HP ^129Xe was bubbled into the NMR tube through capillaries for 20 seconds, followed by a 3-second delay to allow bubbles to collapse. A Dsnob saturation pulse with 690 Hz bandwidth was used. Pulse length tpulse=3.80 ms, field strength B1, max=77 μT, number of pulses npulse=400, saturation time Tsat=1.52 s. NMR experiments were performed using a Bruker BioDRX 500 MHz NMR spectrometer and 10-mm PABBO probe, at 300 K. A 900 hard pulse of this probe has a pulse length of 22 μs. Unless otherwise noted, the protein concentration used was 80 μM, with 0.1% (v/v) Pluronic L81 (Aldrich) added to mitigate foaming.
Briefly, hyperpolarized (hp)^129Xe was generated using the spin-exchange optical pumping (SEOP) method with a home-built ^129Xe polarizer based on the IGI.Xe.2000 commercial model by GE. A Shark 65 W tunable ultra-narrow band diode laser (OptiGrate) set to 795 nm was used for optical pumping of Rb vapor. A gas mixture of 88% helium, 10% nitrogen, and 2% natural abundance xenon (Linde Group, N.J.) was used as the hyperpolarizer input. ^129Xe hyperpolarization level was roughly 10-15%. For each data point in the hyper-CEST z-spectra, hp ^129Xe was bubbled into the NMR tube through capillaries for 20 s, followed by a 3-s delay to allow bubbles to collapse. A d-SNOB saturation pulse with 690 Hz bandwidth was used. Pulse length, tpulse=3.80 ms; field strength B1,max=77 μT; number of pulses, npulse=400; saturation time, Tsat=1.52 s. NMR experiments were performed using a Bruker BioDRX 500 MHz NMR spectrometer and 10-mm PABBO probe, at 300 K. A 900 hard pulse of this probe has a pulse length of 22 μs. Unless otherwise noted, the protein concentration used was 80 μM, with 0.1% (v/v) Pluronic L81 (Aldrich) added to mitigate foaming. […] Pulse length, Tpulse=1.0496 ms; field strength, B1max=279 μT. Both on-resonance and off-resonance data were fitted with first-order exponential decay curves.

[4] = MBP fluorescence quenching by maltose; assay type: binding; details: 4 μM MBP, 400 μM maltose, 20 mM HEPES pH 7.4, excitation 280 nm
Experimental: Fluorescence spectra were obtained on a Tecan Infinite M1000 PRO microplate reader using black 96 well flat-bottom microplates (Grenier Bio-One). […] Excitation was at 280 nm and emission was scanned from 300 to 400 nm in 1 nm increments. All fluorescence assays were performed in triplicate and averaged. Fluorescence spectra were background corrected by subtracting the fluorescence spectrum of the well solution in the absence of protein.

BL21(DE3) E. coli = assay: Hyper-CEST of MBP expressed in E. coli (pET-MBP plasmid); assay type: cell-based; details: for Contrast, corrected: contrast of non-induced E. coli subtracted; for T1off / T1on: OD600=9; for saturation contrast: OD600=9, +95/−95 ppm
Text: All cell solutions were normalized to OD600=9. Saturation frequencies of Dsnob-shaped pulses were positioned at +95 ppm and −95 ppm, referenced to the Xe(aq) peak, for on- and off-resonance, respectively. Pulse length, τpulse=1.0496 ms; field strength, B1,max=279 μT. Both on-resonance and off-resonance data were fitted with first-order exponential decay curves.

[5] = RBP from E. coli; read-out: Kd for ribose; cited from earlier work
[6] = bla hydrolase activity assay pre- and post-CEST; assay type: biochemical; details: 5 nM enzyme, 450 μM nitrocefin, 50 mM Tris pH 7.4, 5% DMSO
Experimental: The hydrolysis of nitrocefin was monitored at A482 using an Infinite M1000 Pro plate reader (Tecan).
Product formation was monitored at A482 using an Infinite M1000 Pro plate reader (Tecan). The assays were performed in triplicate for pre- and post-hyper CEST bla(I263A) and bla(I279N) samples.

[7] = induced E. coli with maltose, 6±4 μM MBP
[8] = induced E. coli without maltose, 15±6 μM MBP

In the case of `OC[C@H]1O[C@@H]2O[C@H]3[C@H](O)[C@@H](O)[C@@H](O[C@H]4[C@H](O)[C@@H](O)[C@@H](O[C@H]5[C@H](O)[C@@H](O)[C@@H](O[C@H]6[C@H](O)[C@@H](O)[C@@H](O[C@H]7[C@H](O)[C@@H](O)[C@@H](O[C@H]8[C@H](O)[C@@H](O)[C@@H](O[C@H]1[C@H](O)[C@H]2O)O[C@@H]8CO)O[C@@H]7CO)O[C@@H]6CO)O[C@@H]5CO)O[C@@H]4CO)O[C@@H]3CO` [βCD, β-cyclodextrin], the Kd (MBP) is given as 1800 nM.

In the case of “GFP-RBP(L19A): fusion of GFP and ribose binding protein with L19A mutation (SEQ ID NO: 46)”, the “saturation contrast (maximum)” value ([1]; 100 nM GFP-RBP(L19A), pulses at +42.5/−42.5 ppm) is reported as 0.30±0.01 and the “saturation response in z-spectrum” value ([1]; 10 μM protein, unliganded (no ribose)) is reported as “only a single saturation response”.

For hemoglobin [reference compound], the xenon association constant [2] is listed as “around 200 M^−1”.

Molecule maltose binding protein [MBP] has a T1off ([3]; 0 μM maltose) of 44 ± 3 s, a T1on ([3]; 0 μM maltose) of 41 ± 2 s and a saturation contrast ([3]; 0 μM maltose, pH 7.2 PBS, 300 K) of 0.022±0.004. It also gave a T1off ([3]; 0.1 μM maltose) of 41 ± 3 s, a T1on ([3]; 0.1 μM maltose) of 34 ± 1 s and a saturation contrast ([3]; 0.1 μM maltose) of 0.050±0.007. For the same molecule, the T1off ([3]; 0.3 μM maltose) was 43 ± 1 s, the T1on ([3]; 0.3 μM maltose) was 35 ± 1 s and the saturation contrast ([3]; 0.3 μM maltose) was 0.05±0.01. It also gave a T1off ([3]; 0.5 μM maltose) of 39 ± 1 s, a T1on ([3]; 0.5 μM maltose) of 26.3 ± 0.9 s and a saturation contrast ([3]; 0.5 μM maltose) of 0.11±0.01. For the same molecule, the T1off ([3]; 1 μM maltose) was 50 ± 1 s, the T1on ([3]; 1 μM maltose) was 32.7 ± 0.7 s and the saturation contrast ([3]; 1 μM maltose) was 0.118±0.007. It also gave a T1off ([3]; 3 μM maltose) of 46 ± 2 s, a T1on ([3]; 3 μM maltose) of 26 ± 1 s and a saturation contrast ([3]; 3 μM maltose) of 0.161±0.004. The T1off ([3]; 1 mM maltose) was 55 ± 3 s, the T1on ([3]; 1 mM maltose) was 21.8 ± 0.6 s and the saturation contrast ([3]; 1 mM maltose) was 0.26±0.01. For the same molecule, the T1on ([3]; 1 mM maltose, listed as WT MBP) was 21.8 ± 0.7 s, the “lowest maltose concentration readily detected (detection threshold)” value ([3]; 100 nM protein sensor) was 100 nM and the “downfield saturation response in z-spectrum” value ([3]; 80 μM MBP, 1 mM β-cyclodextrin) was “no downfield Xe@MBP peak; also recorded: no downfield saturation response”. For the same molecule, the “saturation response in z-spectrum” value ([3]; 80 μM protein, without maltose) was “only a single saturation response”, the “magnitude of fluorescence quenching by maltose” value [4] was 22% and the “Contrast per μM MBP” value (BL21(DE3) E. coli; E. coli with maltose) was 0.05 ± 0.03. For the same molecule, the “Contrast, corrected” value (BL21(DE3) E. coli; E. coli with maltose) was 0.28, the “Contrast per μM MBP” value (BL21(DE3) E. coli; E. coli without maltose) was 0.013 ± 0.005 and the “Contrast, corrected” value (BL21(DE3) E. coli; E. coli without maltose) was 0.19. The “increase in observed CEST contrast generated by maltose” value (BL21(DE3) E. coli; background subtracted, normalized to MBP concentration) was 3.7 fold, the T1off (BL21(DE3) E. coli; [7]) was 16.7 ± 0.6 s and the T1on (BL21(DE3) E. coli; [7]) was 4.94 ± 0.10 s. For the same molecule, the saturation contrast (BL21(DE3) E. coli; [7]) was 0.60±0.02, the T1off (BL21(DE3) E. coli; [8]) was 9.3 ± 0.3 s and the T1on (BL21(DE3) E. coli; [8]) was 5.35 ± 0.17 s. The saturation contrast (BL21(DE3) E. coli; [8]) was 0.40±0.06, the “Ka for Xe binding to MBP+maltose” value ([2]; 1H-15N HSQC NMR) was “too low to measure” and the “Ka for Xe binding to MBP+βCD” value ([2]; 1H-15N HSQC NMR) was 20±10. For the same molecule, the “Ka of Xe binding” value ([2]; MBP in the open conformation, HSQC NMR) was 20±10 and the “Xe binding affinity (association constant)” value ([2]; experimentally determined literature values) was 20 ± 10 M⁻¹.

In the case of myoglobin [reference compound], the xenon association constant [2] is listed as “around 200 M^−1”.

B1: ribose binding protein (protein)
chain: KDTIALVVSTLNNPFFVSLKDGAQKEADKLGYNLVVLDSQNNPAKELANVQDLTVRGTKILLINPTDSDAVGNAVKMANQANIPVITLDRQATKGEVVSHIASDNVLGGKIAGDYIAKKAGEGAKVIELQGIAGTSAARERGEGFQQAVAAHKFNVLASQPADFDRIKGLNVMQNLLTAHPDVQAVFAQNDEMALGALRALQTAGKSDVMVVGFDGTPDGEKAVNDGKLAATIAQLPDQIGAKGVETADKVLKGEKVQAKYPVDLKLVVKQ
modifications: Native amino acid sequence of RBP for expression in E. coli
In the case of B1, the Kd [5] is given as 130 nM.

B2: RBP(L19A): ribose binding protein having a L19A mutation (SEQ ID NO: 44) (protein)
chain: KDTIALVVSTLNNPFFVSAKDGAQKEADKLGYNLVVLDSQNNPAKELANVQDLTVRGTKILLINPTDSDAVGNAVKMANQANIPVITLDRQATKGEVVSHIASDNVLGGKIAGDYIAKKAGEGAKVIELQGIAGTSAARERGEGFQQAVAAHKFNVLASQPADFDRIKGLNVMQNLLTAHPDVQAVFAQNDEMALGALRALQTAGKSDVMVVGFDGTPDGEKAVNDGKLAATIAQLPDQIGAKGVETADKVLKGEKVQAKYPVDLKLVVKQ
modifications: Amino acid sequence of RBP(L19A)
For B2, the “xenon binding affinity, closed conformation” value ([2]; 1H-15N HSQC NMR) is given as 40 ± 20 M⁻¹ and the “xenon binding affinity, open conformation” value ([2]; 1H-15N HSQC NMR) is given as 70 ± 30 M⁻¹.

B3: I263A: bla having an I263A mutation (SEQ ID NO: 5) (protein)
chain: MSIQHFRVALIPFFAAFCLPVFAHPETLVKVKDAEDQLGARVGYIELDLNSGKILESFRPEERFPMMSTFKVLLCGAVLSRVDAGQEQLGRRIHYSQNDLVEYSPVTEKHLTDGMTVRELCSAAITMSDNTAANLLLTTIGGPKELTAFLHNMGDHVTRLDRWEPELNEAIPNDERDTTMPAAMATTLRKLLTGELLTLASRQQLIDWMEADKVAGPLLRSALPAGWFIADKSGAGERGSRGIIAALGPDGKPSRIVVAYTTGSQATMDERNRQIAEIGASLIKHW
modifications: TEM-1 beta-lactamase with a I263A mutation (mutation at residue 259)
With B3 the “Initial Rate, after CEST” value ([6]; listed as bla(I263A)) was 0.153±0.009 A482 min^−1 and the “Initial Rate, before CEST” value ([6]; listed as bla(I263A)) was 0.142±0.002 A482 min^−1.

B4: I279N: bla having an I279N mutation (SEQ ID NO: 6) (protein)
chain: MSIQHFRVALIPFFAAFCLPVFAHPETLVKVKDAEDQLGARVGYIELDLNSGKILESFRPEERFPMMSTFKVLLCGAVLSRVDAGQEQLGRRIHYSQNDLVEYSPVTEKHLTDGMTVRELCSAAITMSDNTAANLLLTTIGGPKELTAFLHNMGDHVTRLDRWEPELNEAIPNDERDTTMPAAMATTLRKLLTGELLTLASRQQLIDWMEADKVAGPLLRSALPAGWFIADKSGAGERGSRGIIAALGPDGKPSRIVVIYTTGSQATMDERNRQNAEIGASLIKHW
modifications: TEM-1 beta-lactamase with a I279N mutation (mutation at residue 275)
For B4, the “Initial Rate, after CEST” value [6] was 0.047 ± 0.002 A482 min^−1 and the “Initial Rate, before CEST” value [6] was 0.044 ± 0.003 A482 min^−1.
